These are literature values, as cited in patent US9505742B2, “3,4-dihydro-2H-isoquinoline-1-one and 2,3-dihydro-isoindol-1-one compounds” (Hoffmann-La Roche Inc., priority 2013, dated 2016).

For series [1] the following is noted: rat CKD model, cited from earlier work; for plasma aldosterone: FAD286 4 weeks, spironolactone 4 and 8 weeks of treatment.
The conditions of series [2]: rats with experimental heart failure; cited from earlier work.
Series [3] has as its target CYP11B2 (Homo sapiens, UniProt P19099). As to conditions: patients with primary aldosteronism, cited from earlier work.

SMILES strings stand for the structures.

Chain of CYP11B2 (P19099 25-503): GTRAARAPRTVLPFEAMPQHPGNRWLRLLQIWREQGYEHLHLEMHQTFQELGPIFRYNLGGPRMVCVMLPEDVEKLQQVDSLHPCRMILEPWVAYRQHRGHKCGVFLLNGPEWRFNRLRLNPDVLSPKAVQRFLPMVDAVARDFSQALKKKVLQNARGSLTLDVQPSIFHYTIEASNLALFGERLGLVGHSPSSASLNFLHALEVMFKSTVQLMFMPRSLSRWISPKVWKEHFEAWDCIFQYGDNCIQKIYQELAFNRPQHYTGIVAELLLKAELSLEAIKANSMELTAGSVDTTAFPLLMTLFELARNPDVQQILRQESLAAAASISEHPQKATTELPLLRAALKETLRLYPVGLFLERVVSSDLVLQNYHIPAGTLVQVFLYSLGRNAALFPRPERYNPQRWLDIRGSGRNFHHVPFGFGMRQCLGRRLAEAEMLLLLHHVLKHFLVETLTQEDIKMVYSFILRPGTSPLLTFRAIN

For `N#Cc1ccc(C2CCCc3cncn32)cc1` (stereo not drawn) [FAD286], in series [1], the plasma aldosterone entry was “reduced”; the “angiotensin II and salt-stimulated PAI-1 mRNA expression in the aorta and the heart” value is listed as “not”; the “renal effects of angiotensin II and high salt (albuminuria, azotemia, renovascular hypertrophy, glomerular injury, PAI-1 and osteopontin mRNA, tubulointerstitial fibrosis)” value is “prevented these renal effects”. Further, in series [2], the “blood pressure and cardiovascular function and structure” value is “improved”; the “kidney function and morphology” value is recorded as “improve”.

For `N#Cc1ccc([C@H]2CCc3cncn32)c(F)c1` [LCI699], the circulating aldosterone levels result in series [3] (oral) is given as “significantly lower”. Further, in series [3], the blood pressure entry was “mildly decreased”, the hypokalemia result is listed as “corrected” and the “selectivity / effects on the glucocorticoid axis” value is “poor selectivity”.

Take `CC(=O)S[C@@H]1CC2=CC(=O)CC[C@]2(C)[C@H]2CC[C@@]3(C)[C@@H](CC[C@@]34CCC(=O)O4)[C@H]12` [spironolactone]: in series [1], the plasma aldosterone result is reported as “increased”; the “angiotensin II and salt-stimulated PAI-1 mRNA expression in the aorta and the heart” value is on record as “enhanced”; the “renal effects of angiotensin II and high salt (albuminuria, azotemia, renovascular hypertrophy, glomerular injury, PAI-1 and osteopontin mRNA, tubulointerstitial fibrosis)” value is reported as “prevented these renal effects”.
